Laboratory results published in ChEMBL document CHEMBL1125129, “Design of potent and selective linear antagonists of vasopressor (V1-receptor) responses to vasopressin” (J Med Chem, 1990).

Experiments:
Vasopressin V2 receptor = Vasopressin V2 receptor (Rattus norvegicus, UniProt Q00788); test: Vasopressin V2 receptor antagonistic activity in vivo in anesthetized rats; type: functional, organism-based; settings: read-out: pA2 (converted)
Vasopressin V1 receptor = Vasopressin V1 receptor (Rattus norvegicus, UniProt P48974+P30560); test: pA2 value was determined for Vasopressin V1 receptor antagonistic activity in vivo in anesthetized rats; type: functional, organism-based
[1] = target: Vasopressin V2 receptor (Rattus norvegicus) (UniProt Q00788); test: Effective dose was determined for Vasopressin V2 receptor antagonistic activity in vivo in anesthetized rats; type: functional, organism-based
[2] = target: Vasopressin V2 receptor (Rattus norvegicus) (UniProt Q00788); test: Selectivity ratio of antidiuretic Vasopressin V2 receptor ED /[…] receptor ED; settings: Urine
[3] = target: Vasopressin V1 receptor (Rattus norvegicus) (UniProt P48974+P30560); test: Effective dose was determined for Vasopressin V1 receptor antagonistic activity in vivo in anesthetized rats; type: functional, organism-based
Chain of Vasopressin V1 receptor (Rattus norvegicus) (P30560 whole entry, looked up): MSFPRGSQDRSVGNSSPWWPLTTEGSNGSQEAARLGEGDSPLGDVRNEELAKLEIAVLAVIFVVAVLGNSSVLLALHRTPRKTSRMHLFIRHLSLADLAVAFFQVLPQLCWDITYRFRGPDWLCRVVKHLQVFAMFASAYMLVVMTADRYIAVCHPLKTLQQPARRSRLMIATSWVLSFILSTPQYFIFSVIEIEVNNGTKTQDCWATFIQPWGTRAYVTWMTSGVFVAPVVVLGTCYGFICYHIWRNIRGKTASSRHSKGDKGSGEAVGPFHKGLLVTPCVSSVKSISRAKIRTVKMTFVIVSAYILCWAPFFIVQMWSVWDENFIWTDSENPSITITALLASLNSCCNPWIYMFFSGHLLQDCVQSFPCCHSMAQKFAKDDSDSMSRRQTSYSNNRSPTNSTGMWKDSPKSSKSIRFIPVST
Chain of Vasopressin V1 receptor (Rattus norvegicus) (P48974 whole entry, looked up): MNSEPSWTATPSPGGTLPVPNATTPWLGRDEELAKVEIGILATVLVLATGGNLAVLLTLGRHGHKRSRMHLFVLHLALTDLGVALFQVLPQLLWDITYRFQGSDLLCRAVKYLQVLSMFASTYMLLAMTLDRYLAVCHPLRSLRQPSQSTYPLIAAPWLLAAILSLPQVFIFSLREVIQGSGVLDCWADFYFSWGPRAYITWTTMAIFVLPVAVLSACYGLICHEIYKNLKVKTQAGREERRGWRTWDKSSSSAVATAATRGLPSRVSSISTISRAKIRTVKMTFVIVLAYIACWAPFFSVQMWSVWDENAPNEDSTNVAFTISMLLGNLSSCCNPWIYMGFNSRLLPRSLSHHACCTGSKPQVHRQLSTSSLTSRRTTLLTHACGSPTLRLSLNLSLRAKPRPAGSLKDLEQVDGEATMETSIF

Chain of Vasopressin V2 receptor (Rattus norvegicus) (Q00788 whole entry): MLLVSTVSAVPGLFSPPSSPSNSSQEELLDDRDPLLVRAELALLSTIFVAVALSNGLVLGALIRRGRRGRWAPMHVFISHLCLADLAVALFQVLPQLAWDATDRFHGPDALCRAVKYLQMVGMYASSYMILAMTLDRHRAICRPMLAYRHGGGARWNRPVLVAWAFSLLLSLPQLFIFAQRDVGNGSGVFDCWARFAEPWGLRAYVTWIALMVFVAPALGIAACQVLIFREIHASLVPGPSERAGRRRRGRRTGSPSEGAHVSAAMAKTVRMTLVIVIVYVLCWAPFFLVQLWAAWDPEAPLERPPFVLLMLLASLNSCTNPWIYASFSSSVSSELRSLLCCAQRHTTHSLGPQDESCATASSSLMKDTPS
Chain of Vasopressin V2 receptor (Q00788 whole entry): as above

Row | Kb (Vasopressin V2 receptor) | pA2 (Vasopressin V1 receptor) | Effective dose [1] | Ratio [2] | Effective dose [3] | SMILES
1 | 15.5 nM | 8.02 | – | – | – | CCOc1ccc(C[C@@H](NC(=O)CC23CC4CC(CC(C4)C2)C3)C(=O)N[C@@H](Cc2ccccc2)C(=O)N[C@H](C(=O)N[C@@H](CC(N)=O)C(=O)N[C@@H](CCCCN)C(=O)N2CCC[C@H]2C(=O)N[C@@H](CCCN=C(N)N)C(N)=O)C(C)C)cc1
2 | – | – | 0.9 nM/kg | 0.6 | 1.6 nM/kg | CCOc1ccc(C[C@@H](NC(=O)CC23CC4CC(CC(C4)C2)C3)C(=O)N[C@@H](Cc2ccccc2)C(=O)N[C@H](C(=O)N[C@@H](CC(N)=O)C(=O)N[C@@H](CCCN)C(=O)N2CCC[C@@H]2C(=O)N[C@@H](CCCN=C(N)N)C(=O)N[C@@H](CCCN=C(N)N)C(N)=O)C(C)C)cc1
3 | – | – | 0.83 nM/kg | 1.2 | 0.71 nM/kg | CCOc1ccc(C[C@@H](NC(=O)CC(C)(C)C)C(=O)N[C@@H](Cc2ccccc2)C(=O)N[C@H](C(=O)N[C@@H](CC(N)=O)C(=O)NCCCC(=O)N2CCC[C@@H]2C(=O)N[C@@H](CCCN=C(N)N)C(=O)N[C@@H](CCCN=C(N)N)C(N)=O)C(C)C)cc1
4 | – | – | 6 nM/kg | 35 | 0.17 nM/kg | COc1ccc(C[C@@H](NC(=O)Cc2ccccc2)C(=O)N[C@@H](Cc2ccccc2)C(=O)N[C@H](C(=O)N[C@@H](CC(N)=O)C(=O)N[C@@H](CCCCN)C(=O)N2CCC[C@@H]2C(=O)N[C@@H](CCCN=C(N)N)C(N)=O)C(C)C)cc1
5 | 21.9 nM | 8.22 | – | – | – | CC(C)[C@H](NC(=O)[C@H](Cc1ccccc1)NC(=O)[C@@H](Cc1ccc(O)cc1)NC(=O)CC12CC3CC(CC(C3)C1)C2)C(=O)N[C@@H](CC(N)=O)C(=O)N[C@@H](CCCN=C(N)N)C(=O)N1CCC[C@H]1C(=O)N[C@@H](CCCN=C(N)N)C(=O)N[C@@H](CCCN=C(N)N)C(N)=O
6 | – | – | 0.71 nM/kg | 1.4 | 0.5 nM/kg | CCOc1ccc(C[C@@H](NC(=O)CC23CC4CC(CC(C4)C2)C3)C(=O)N[C@@H](Cc2ccccc2)C(=O)N[C@H](C(=O)N[C@@H](CC(N)=O)C(=O)N[C@@H](CCCN=C(N)N)C(=O)N2CCC[C@@H]2C(=O)N[C@@H](CCCN=C(N)N)C(=O)N[C@@H](CCCN=C(N)N)C(N)=O)C(C)C)cc1
7 | 20 nM | 8.14 | – | – | – | CCOc1ccc(C[C@@H](NC(=O)CC23CC4CC(CC(C4)C2)C3)C(=O)N[C@@H](Cc2ccccc2)C(=O)N[C@H](C(=O)N[C@@H](CC(N)=O)C(=O)N[C@@H](CCCCN)C(=O)N2CCC[C@H]2C(=O)N[C@@H](CCCN=C(N)N)C(=O)N[C@@H](CCCN=C(N)N)C(N)=O)C(C)C)cc1
8 | – | – | – | – | 0.16 nM/kg | CC(C)[C@H](NC(=O)[C@H](Cc1ccccc1)NC(=O)[C@@H](Cc1ccc(O)cc1)NC(=O)Cc1ccccc1)C(=O)N[C@@H](CC(N)=O)C(=O)N[C@@H](CCCN=C(N)N)C(=O)N1CCC[C@@H]1C(=O)N[C@@H](CCCN=C(N)N)C(=O)N[C@@H](CCCN=C(N)N)C(N)=O
9 | – | – | 40 nM/kg | 570 | 0.07 nM/kg | CCOc1ccc(C[C@@H](NC(=O)Cc2ccccc2)C(=O)N[C@@H](Cc2ccccc2)C(=O)N[C@@H](CCC(N)=O)C(=O)N[C@@H](CC(N)=O)C(=O)N[C@@H](CCCCN)C(=O)N2CCC[C@@H]2C(=O)N[C@@H](CCCN=C(N)N)C(N)=O)cc1
10 | ~58.9 nM | 8.39 | – | – | – | CCOc1ccc(C[C@@H](NC(=O)Cc2ccccc2)C(=O)N[C@@H](Cc2ccccc2)C(=O)N[C@H](C(=O)N[C@@H](CC(N)=O)C(=O)N[C@@H](CCCN)C(=O)N2CCC[C@H]2C(=O)N[C@@H](CCCN=C(N)N)C(=O)N[C@@H](CCCN=C(N)N)C(N)=O)C(C)C)cc1
11 | 100 nM | 8.61 | – | – | – | COc1ccc(C[C@@H](NC(=O)Cc2ccccc2)C(=O)N[C@@H](Cc2ccccc2)C(=O)N[C@H](C(=O)N[C@@H](CC(N)=O)C(=O)N[C@@H](CCCCN)C(=O)N2CCC[C@H]2C(=O)N[C@@H](CCCN=C(N)N)C(N)=O)C(C)C)cc1
12 | – | 8.62 | – | – | – | CC(C)[C@H](NC(=O)[C@H](Cc1ccccc1)NC(=O)[C@@H](Cc1ccc(O)cc1)NC(=O)Cc1ccccc1)C(=O)N[C@@H](CC(N)=O)C(=O)N[C@@H](CCCN=C(N)N)C(=O)N1CCC[C@H]1C(=O)N[C@@H](CCCN=C(N)N)C(=O)N[C@@H](CCCN=C(N)N)C(N)=O
13 | – | – | 4 nM/kg | 14 | 0.29 nM/kg | CCOc1ccc(C[C@@H](NC(=O)Cc2ccccc2)C(=O)N[C@@H](Cc2ccccc2)C(=O)N[C@H](C(=O)N[C@@H](CC(N)=O)C(=O)N[C@@H](CCCN)C(=O)N2CCC[C@@H]2C(=O)N[C@@H](CCCN=C(N)N)C(=O)N[C@@H](CCCN=C(N)N)C(N)=O)C(C)C)cc1
14 | – | – | 5 nM/kg | 59 | 0.085 nM/kg | NCCCC[C@H](NC(=O)[C@H](CC(N)=O)NC(=O)[C@H](CCC(N)=O)NC(=O)[C@H](Cc1ccccc1)NC(=O)[C@@H](Cc1ccc(O)cc1)NC(=O)Cc1ccccc1)C(=O)N1CCC[C@@H]1C(=O)N[C@@H](CCCN=C(N)N)C(N)=O
15 | – | – | 1.4 nM/kg | 2.8 | 0.5 nM/kg | CCOc1ccc(C[C@@H](NC(=O)CC23CC4CC(CC(C4)C2)C3)C(=O)N[C@@H](Cc2ccccc2)C(=O)N[C@H](C(=O)N[C@@H](CC(N)=O)C(=O)N[C@@H](CCCCN)C(=O)N2CCC[C@@H]2C(=O)N[C@@H](CCCN=C(N)N)C(=O)N[C@@H](CCCN=C(N)N)C(N)=O)C(C)C)cc1
16 | – | – | 0.69 nM/kg | 2.7 | 0.26 nM/kg | CCOc1ccc(C[C@@H](NC(=O)Cc2ccccc2)C(=O)N[C@@H](Cc2ccccc2)C(=O)N[C@H](C(=O)N[C@@H](CC(N)=O)C(=O)NCCCC(=O)N2CCC[C@@H]2C(=O)N[C@@H](CCCN=C(N)N)C(=O)N[C@@H](CCCN=C(N)N)C(N)=O)C(C)C)cc1
17 | – | – | 9.8 nM/kg | 41 | 0.24 nM/kg | CCOc1ccc(C[C@@H](NC(=O)Cc2ccccc2)C(=O)N[C@@H](Cc2ccccc2)C(=O)N[C@H](C(=O)N[C@@H](CC(N)=O)C(=O)N[C@@H](CCCCN)C(=O)N2CCC[C@@H]2C(=O)N[C@@H](CCCN=C(N)N)C(=O)N[C@@H](CCCN=C(N)N)C(N)=O)C(C)C)cc1
18 | – | – | > 7 nM/kg | 41 | 0.17 nM/kg | CCOc1ccc(C[C@@H](NC(=O)CC(C)(C)C)C(=O)N[C@@H](Cc2ccccc2)C(=O)N[C@H](C(=O)N[C@@H](CC(N)=O)C(=O)N[C@@H](CCCCN)C(=O)N2CCC[C@@H]2C(=O)N[C@@H](CCCN=C(N)N)C(N)=O)C(C)C)cc1
19 | – | – | 1.7 nM/kg | 4.3 | – | CC(C)[C@H](NC(=O)[C@H](Cc1ccccc1)NC(=O)[C@@H](Cc1ccc(O)cc1)NC(=O)CC12CC3CC(CC(C3)C1)C2)C(=O)N[C@@H](CC(N)=O)C(=O)N[C@@H](CCCN=C(N)N)C(=O)N1CCC[C@@H]1C(=O)N[C@@H](CCCN=C(N)N)C(=O)N[C@@H](CCCN=C(N)N)C(N)=O
20 | – | – | > 410 nM/kg | > 1500 | 0.27 nM/kg | CCOc1ccc(C[C@@H](NC(=O)CC(C)(C)C)C(=O)N[C@@H](Cc2ccccc2)C(=O)N[C@@H](CCC(N)=O)C(=O)N[C@@H](CC(N)=O)C(=O)N[C@@H](CCCCN)C(=O)N2CCC[C@@H]2C(=O)N[C@@H](CCCN=C(N)N)C(N)=O)cc1
21 | – | – | 2.9 nM/kg | 26 | 0.11 nM/kg | CCOc1ccc(C[C@@H](NC(=O)Cc2ccccc2)C(=O)N[C@@H](Cc2ccccc2)C(=O)N[C@H](C(=O)N[C@@H](CC(N)=O)C(=O)N[C@@H](CCCCN)C(=O)N2CCC[C@@H]2C(=O)N[C@@H](CCCN=C(N)N)C(N)=O)C(C)C)cc1
22 | – | – | 0.53 nM/kg | 0.44 | 1.2 nM/kg | CCOc1ccc(C[C@@H](NC(=O)CC23C[C@H]4C[C@@H](C2)C[C@@H](C3)C4)C(=O)N[C@@H](Cc2ccccc2)C(=O)N[C@H](C(=O)N[C@@H](CC(N)=O)C(=O)NCCCC(=O)N2CCC[C@@H]2C(=O)N[C@@H](CCCN=C(N)N)C(=O)N[C@@H](CCCN=C(N)N)C(N)=O)C(C)C)cc1
23 | – | – | 1.1 nM/kg | 1.7 | 0.66 nM/kg | CCOc1ccc(C[C@@H](NC(=O)CC23CC4CC(CC(C4)C2)C3)C(=O)N[C@@H](Cc2ccccc2)C(=O)N[C@H](C(=O)N[C@@H](CC(N)=O)C(=O)N[C@@H](CCCCN)C(=O)N2CCC[C@@H]2C(=O)N[C@@H](CCCN=C(N)N)C(N)=O)C(C)C)cc1
24 | – | – | 1.4 nM/kg | 2.1 | 0.66 nM/kg | CCOc1ccc(C[C@@H](NC(=O)CC23CC4CC(CC(C4)C2)C3)C(=O)N[C@@H](Cc2ccccc2)C(=O)N[C@H](C(=O)N[C@@H](CC(N)=O)C(=O)N[C@@H](CCCN=C(N)N)C(=O)N2CCC[C@@H]2C(=O)N[C@@H](CCCN=C(N)N)C(N)=O)C(C)C)cc1
25 | – | – | > 24 nM/kg | > 290 | 0.083 nM/kg | COc1ccc(C[C@@H](NC(=O)Cc2ccccc2)C(=O)N[C@@H](Cc2ccccc2)C(=O)N[C@@H](CCC(N)=O)C(=O)N[C@@H](CC(N)=O)C(=O)N[C@@H](CCCCN)C(=O)N2CCC[C@@H]2C(=O)N[C@@H](CCCN=C(N)N)C(N)=O)cc1
26 | – | – | 1.1 nM/kg | 0.3 | 3.2 nM/kg | CCOc1ccc(C[C@@H](NC(=O)CC23CC4CC(CC(C4)C2)C3)C(=O)N[C@@H](Cc2ccccc2)C(=O)N[C@H](C(=O)N[C@@H](CC(N)=O)C(=O)N[C@@H](CCCN)C(=O)N2CCC[C@@H]2C(=O)N[C@@H](CCCN=C(N)N)C(N)=O)C(C)C)cc1

Row | SMILES | Kb (Vasopressin V2 receptor) | pA2 (Vasopressin V1 receptor) | Effective dose [1] | Ratio [2] | Effective dose [3]
27 | CCOc1ccc(C[C@H]2NC(=O)CC3(CCCCC3)SSC[C@H](C(=O)N3CCC[C@H]3C(=O)N[C@@H](CCCN=C(N)N)C(=O)NCC(N)=O)NC(=O)[C@@H](CC(N)=O)NC(=O)[C@H](C(C)C)NC(=O)[C@@H](Cc3ccccc3)NC2=O)cc1 | – | 8.22 | 1.1 nM/kg | – | 0.45 nM/kg
28 | CCOc1ccc(C[C@H]2NC(=O)CC3(CCCCC3)SSC[C@H](C(=O)N3CCC[C@H]3C(=O)N[C@@H](CCCN=C(N)N)C(N)=O)NC(=O)[C@@H](CC(N)=O)NC(=O)[C@H](C(C)C)NC(=O)[C@@H](Cc3ccccc3)NC2=O)cc1 | – | – | 1.5 nM/kg | 3.3 | 0.45 nM/kg
